Measurements as given in ChEMBL document CHEMBL3991601, “The target landscape of clinical kinase drugs” (Science, 2017).
The source made the active and inactive calls. Rule as the data show it, for most assays here: actives have a measured Kd and inactives only a lower limit.

What was measured:
[1] = target: Serine/threonine-protein kinase pim-1 (Homo sapiens, UniProt P11309)
[2] = target: T1, Serine/threonine-protein kinase TBK1 (Homo sapiens, UniProt Q9UHD2)
T1 sequence (Q9UHD2 whole entry): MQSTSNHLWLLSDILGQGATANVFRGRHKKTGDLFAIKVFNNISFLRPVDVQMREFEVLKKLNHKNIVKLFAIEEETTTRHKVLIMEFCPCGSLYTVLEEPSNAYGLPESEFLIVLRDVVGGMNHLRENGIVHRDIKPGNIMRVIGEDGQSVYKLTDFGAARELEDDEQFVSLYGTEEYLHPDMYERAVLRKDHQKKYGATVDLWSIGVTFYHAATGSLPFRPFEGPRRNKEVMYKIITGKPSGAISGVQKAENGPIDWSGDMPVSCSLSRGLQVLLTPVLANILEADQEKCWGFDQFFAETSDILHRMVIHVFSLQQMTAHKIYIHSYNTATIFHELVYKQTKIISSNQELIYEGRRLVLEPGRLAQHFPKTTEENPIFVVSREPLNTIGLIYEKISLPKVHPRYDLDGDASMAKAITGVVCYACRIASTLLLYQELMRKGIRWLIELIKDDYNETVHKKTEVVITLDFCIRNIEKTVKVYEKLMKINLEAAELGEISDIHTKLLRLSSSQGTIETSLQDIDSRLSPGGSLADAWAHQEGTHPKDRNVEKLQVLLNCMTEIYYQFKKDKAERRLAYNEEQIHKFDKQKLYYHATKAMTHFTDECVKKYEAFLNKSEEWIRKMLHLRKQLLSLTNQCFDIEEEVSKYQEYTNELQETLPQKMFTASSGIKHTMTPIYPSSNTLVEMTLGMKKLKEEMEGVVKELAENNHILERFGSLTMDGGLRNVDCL

[3] = target: T2, Tyrosine-protein kinase Tec (Homo sapiens, UniProt P42680)
T2 sequence (P42680 whole entry): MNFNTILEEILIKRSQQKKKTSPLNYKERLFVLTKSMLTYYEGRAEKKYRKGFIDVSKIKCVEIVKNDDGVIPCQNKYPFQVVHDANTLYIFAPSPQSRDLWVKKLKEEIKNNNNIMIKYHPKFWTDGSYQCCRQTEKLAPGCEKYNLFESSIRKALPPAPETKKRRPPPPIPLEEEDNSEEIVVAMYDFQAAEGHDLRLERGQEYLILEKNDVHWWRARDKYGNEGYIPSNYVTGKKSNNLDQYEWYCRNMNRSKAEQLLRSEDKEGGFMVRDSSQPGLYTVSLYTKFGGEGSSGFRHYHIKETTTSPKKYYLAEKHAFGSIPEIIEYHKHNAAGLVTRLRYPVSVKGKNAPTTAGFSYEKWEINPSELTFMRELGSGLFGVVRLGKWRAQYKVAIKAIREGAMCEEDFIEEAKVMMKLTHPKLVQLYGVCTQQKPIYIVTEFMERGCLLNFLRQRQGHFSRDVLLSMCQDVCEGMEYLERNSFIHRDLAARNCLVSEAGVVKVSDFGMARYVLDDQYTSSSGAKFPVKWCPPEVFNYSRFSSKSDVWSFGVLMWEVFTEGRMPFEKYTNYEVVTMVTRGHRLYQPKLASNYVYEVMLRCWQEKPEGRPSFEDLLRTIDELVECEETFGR

[4] = target: Ribosomal protein S6 kinase alpha-6 (Homo sapiens, UniProt Q9UK32)
[5] = target: Tyrosine-protein kinase JAK1 (Homo sapiens, UniProt P23458)
[6] = target: T3, Serine/threonine-protein kinase STK11 (Homo sapiens, UniProt Q15831)
T3 sequence (Q15831 whole entry): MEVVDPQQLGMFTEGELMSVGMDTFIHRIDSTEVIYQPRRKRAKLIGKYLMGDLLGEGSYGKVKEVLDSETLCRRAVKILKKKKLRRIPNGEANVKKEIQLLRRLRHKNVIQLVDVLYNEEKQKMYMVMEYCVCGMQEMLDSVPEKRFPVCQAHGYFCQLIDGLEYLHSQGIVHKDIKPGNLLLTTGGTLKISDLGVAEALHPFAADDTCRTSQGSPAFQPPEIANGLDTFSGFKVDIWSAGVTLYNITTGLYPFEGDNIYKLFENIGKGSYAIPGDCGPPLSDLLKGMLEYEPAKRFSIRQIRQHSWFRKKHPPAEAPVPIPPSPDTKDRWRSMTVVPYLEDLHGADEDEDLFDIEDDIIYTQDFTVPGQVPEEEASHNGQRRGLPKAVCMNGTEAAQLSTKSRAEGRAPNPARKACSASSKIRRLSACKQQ

Ephrin type-B receptor 2 = target: T4, Ephrin type-B receptor 2 (Homo sapiens, UniProt P29323)
T4 sequence (P29323 whole entry): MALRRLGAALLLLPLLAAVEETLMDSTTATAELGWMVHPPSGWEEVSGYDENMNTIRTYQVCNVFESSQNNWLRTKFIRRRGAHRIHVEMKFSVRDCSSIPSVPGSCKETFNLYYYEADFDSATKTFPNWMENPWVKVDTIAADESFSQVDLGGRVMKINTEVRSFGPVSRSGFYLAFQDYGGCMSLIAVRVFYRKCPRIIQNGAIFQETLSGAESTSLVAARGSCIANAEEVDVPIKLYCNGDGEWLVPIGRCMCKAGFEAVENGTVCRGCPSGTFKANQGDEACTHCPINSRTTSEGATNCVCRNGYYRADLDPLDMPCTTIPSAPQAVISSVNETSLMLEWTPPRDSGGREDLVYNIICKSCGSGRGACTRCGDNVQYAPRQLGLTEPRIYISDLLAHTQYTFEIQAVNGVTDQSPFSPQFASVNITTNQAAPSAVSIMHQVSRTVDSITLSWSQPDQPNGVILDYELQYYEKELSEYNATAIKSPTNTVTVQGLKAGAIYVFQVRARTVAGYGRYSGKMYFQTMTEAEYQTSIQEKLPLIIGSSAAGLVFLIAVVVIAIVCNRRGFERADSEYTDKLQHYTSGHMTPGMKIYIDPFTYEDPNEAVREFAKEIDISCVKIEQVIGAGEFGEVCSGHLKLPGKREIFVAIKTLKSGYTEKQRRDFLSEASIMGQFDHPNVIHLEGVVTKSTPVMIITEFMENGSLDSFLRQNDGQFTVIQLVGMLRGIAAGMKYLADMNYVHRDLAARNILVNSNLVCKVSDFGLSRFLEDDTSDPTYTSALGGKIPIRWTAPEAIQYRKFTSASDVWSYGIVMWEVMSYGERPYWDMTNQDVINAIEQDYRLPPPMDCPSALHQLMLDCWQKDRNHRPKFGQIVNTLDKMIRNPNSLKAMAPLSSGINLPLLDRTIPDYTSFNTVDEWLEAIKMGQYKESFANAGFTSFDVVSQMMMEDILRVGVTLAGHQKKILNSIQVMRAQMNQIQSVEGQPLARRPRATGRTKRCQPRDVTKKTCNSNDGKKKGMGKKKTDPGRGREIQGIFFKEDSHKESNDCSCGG
Also: in the data inactive means no Kd found up to 30 µM.

Sequence of Serine/threonine-protein kinase pim-1 (P11309 whole entry): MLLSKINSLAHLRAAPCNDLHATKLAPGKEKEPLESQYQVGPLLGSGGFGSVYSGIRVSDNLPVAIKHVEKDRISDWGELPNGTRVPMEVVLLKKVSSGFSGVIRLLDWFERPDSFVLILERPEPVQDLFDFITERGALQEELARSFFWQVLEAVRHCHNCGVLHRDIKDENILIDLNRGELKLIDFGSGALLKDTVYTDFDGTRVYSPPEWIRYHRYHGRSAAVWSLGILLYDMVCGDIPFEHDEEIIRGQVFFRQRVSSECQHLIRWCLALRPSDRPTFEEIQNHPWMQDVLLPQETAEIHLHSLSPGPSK
Sequence of Ribosomal protein S6 kinase alpha-6 (Q9UK32 whole entry): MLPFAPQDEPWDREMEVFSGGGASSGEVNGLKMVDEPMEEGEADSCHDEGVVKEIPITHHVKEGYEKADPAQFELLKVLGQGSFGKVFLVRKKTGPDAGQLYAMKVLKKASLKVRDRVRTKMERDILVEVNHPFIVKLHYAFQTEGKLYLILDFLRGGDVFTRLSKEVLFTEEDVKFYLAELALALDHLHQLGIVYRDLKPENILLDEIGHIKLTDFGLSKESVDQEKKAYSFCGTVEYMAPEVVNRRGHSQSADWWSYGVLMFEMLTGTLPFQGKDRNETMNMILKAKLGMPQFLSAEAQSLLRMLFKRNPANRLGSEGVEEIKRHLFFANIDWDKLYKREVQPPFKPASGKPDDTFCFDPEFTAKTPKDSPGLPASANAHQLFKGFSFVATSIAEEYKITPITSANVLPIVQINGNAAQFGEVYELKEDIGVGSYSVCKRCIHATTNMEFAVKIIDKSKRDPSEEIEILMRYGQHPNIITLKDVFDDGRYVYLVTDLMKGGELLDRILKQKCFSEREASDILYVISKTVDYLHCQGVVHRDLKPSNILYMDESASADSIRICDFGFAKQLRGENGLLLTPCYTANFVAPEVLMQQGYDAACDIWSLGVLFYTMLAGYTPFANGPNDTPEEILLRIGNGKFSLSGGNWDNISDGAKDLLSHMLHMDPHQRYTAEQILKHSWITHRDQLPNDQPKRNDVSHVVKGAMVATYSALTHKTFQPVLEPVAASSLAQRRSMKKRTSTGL
Sequence of Tyrosine-protein kinase JAK1 (P23458 whole entry): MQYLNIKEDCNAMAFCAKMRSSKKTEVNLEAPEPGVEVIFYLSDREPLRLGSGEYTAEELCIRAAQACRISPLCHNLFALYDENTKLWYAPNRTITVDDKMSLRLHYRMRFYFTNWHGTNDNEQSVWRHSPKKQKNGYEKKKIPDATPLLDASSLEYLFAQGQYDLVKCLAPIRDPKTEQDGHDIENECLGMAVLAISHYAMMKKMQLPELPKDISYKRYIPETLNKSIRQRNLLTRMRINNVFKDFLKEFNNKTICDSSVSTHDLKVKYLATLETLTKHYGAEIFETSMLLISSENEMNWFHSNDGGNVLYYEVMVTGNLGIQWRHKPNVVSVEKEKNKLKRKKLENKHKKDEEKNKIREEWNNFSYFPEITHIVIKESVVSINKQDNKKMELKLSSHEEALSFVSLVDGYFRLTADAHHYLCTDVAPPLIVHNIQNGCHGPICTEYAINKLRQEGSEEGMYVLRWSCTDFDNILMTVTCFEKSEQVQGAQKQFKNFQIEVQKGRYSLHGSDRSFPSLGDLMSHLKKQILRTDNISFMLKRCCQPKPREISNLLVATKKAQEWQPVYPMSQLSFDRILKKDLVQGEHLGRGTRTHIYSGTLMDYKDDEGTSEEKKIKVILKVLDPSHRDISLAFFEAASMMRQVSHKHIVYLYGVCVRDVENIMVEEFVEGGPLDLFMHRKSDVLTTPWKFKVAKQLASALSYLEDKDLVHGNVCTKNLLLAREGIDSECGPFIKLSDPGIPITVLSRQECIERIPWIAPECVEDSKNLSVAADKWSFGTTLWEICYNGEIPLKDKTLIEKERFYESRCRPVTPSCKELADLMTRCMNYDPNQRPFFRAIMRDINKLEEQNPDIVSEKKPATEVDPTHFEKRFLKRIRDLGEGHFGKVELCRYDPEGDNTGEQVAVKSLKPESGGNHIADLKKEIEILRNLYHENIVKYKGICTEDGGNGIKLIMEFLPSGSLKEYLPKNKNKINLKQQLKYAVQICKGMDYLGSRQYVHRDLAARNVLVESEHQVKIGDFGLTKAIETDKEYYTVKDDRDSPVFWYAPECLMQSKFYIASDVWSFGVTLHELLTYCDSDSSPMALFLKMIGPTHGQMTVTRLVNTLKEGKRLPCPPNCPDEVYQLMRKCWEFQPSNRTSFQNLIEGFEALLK

Kd [1] | Kd [2] | Kd [3] | Kd [4] | Kd [5] | Kd [6] | Kd (Ephrin type-B receptor 2) | Compound
> 30 µM (inactive) | > 30 µM (inactive) | > 30 µM (inactive) | > 30 µM (inactive) | > 30 µM (inactive) | > 30 µM (inactive) | > 30 µM (inactive) | COc1cc(Nc2ncc(F)c(Nc3ccc4c(n3)N(COP(=O)(O)O)C(=O)C(C)(C)O4)n2)cc(OC)c1OC [FOSTAMATINIB]
> 30 µM (inactive) | > 30 µM (inactive) | > 30 µM (inactive) | > 30 µM (inactive) | > 30 µM (inactive) | > 30 µM (inactive) | > 30 µM (inactive) | Cc1ccc(C(=O)Nc2ccc(Oc3cc4cnn(C)c4cc3-c3cn[nH]c3)c(F)c2)c(=O)n1-c1ccc(F)cc1 [MERESTINIB]
> 30 µM (inactive) | > 30 µM (inactive) | > 30 µM (inactive) | > 30 µM (inactive) | > 30 µM (inactive) | > 30 µM (inactive) | > 30 µM (inactive) | c1cc(OCCN2CCCCC2)cc(-c2n[nH]c3ccc(-c4nc[nH]n4)cc23)c1 [CC-401]
> 30 µM (inactive) | > 30 µM (inactive) | > 30 µM (inactive) | > 30 µM (inactive) | > 30 µM (inactive) | > 30 µM (inactive) | > 30 µM (inactive) | O=C(NOC[C@H](O)CO)c1ccc(F)c(F)c1Nc1ccc(I)cc1F [MIRDAMETINIB]
> 30 µM (inactive) | > 30 µM (inactive) | > 30 µM (inactive) | > 30 µM (inactive) | > 30 µM (inactive) | > 30 µM (inactive) | > 30 µM (inactive) | CCOc1ccn(-c2ccc(F)cc2)c(=O)c1C(=O)Nc1ccc(Oc2ccnc(N)c2Cl)c(F)c1 [BMS-777607]
> 30 µM (inactive) | > 30 µM (inactive) | > 30 µM (inactive) | > 30 µM (inactive) | > 30 µM (inactive) | > 30 µM (inactive) | > 30 µM (inactive) | C[C@@H]1COC(Nc2ccc3ncnc(Nc4ccc(OCc5nccs5)c(Cl)c4)c3c2)=N1 [VARLITINIB]
> 30 µM (inactive) | > 30 µM (inactive) | > 30 µM (inactive) | > 30 µM (inactive) | > 30 µM (inactive) | > 30 µM (inactive) | > 30 µM (inactive) | COc1cc2nccc(Oc3ccc(NC(=O)C4(C(=O)Nc5ccc(F)cc5)CC4)cc3)c2cc1OC [CABOZANTINIB]
> 30 µM (inactive) | > 30 µM (inactive) | > 30 µM (inactive) | > 30 µM (inactive) | > 30 µM (inactive) | > 30 µM (inactive) | > 30 µM (inactive) | CNC(=O)c1cccc(-c2ccc3c(N4CCOC[C@@H]4C)nc(N4CCOC[C@@H]4C)nc3n2)c1 [VISTUSERTIB]
> 30 µM (inactive) | > 30 µM (inactive) | > 30 µM (inactive) | > 30 µM (inactive) | > 30 µM (inactive) | > 30 µM (inactive) | > 30 µM (inactive) | S=C(NCc1ccc2c(c1)OCO2)N1CCN(c2ncnc3c2oc2ccccc23)CC1 [AMUVATINIB]
> 30 µM (inactive) | > 30 µM (inactive) | > 30 µM (inactive) | > 30 µM (inactive) | > 30 µM (inactive) | > 30 µM (inactive) | > 30 µM (inactive) | CC(C)(O)CC(=O)NCCn1ccc2ncnc(Nc3ccc(Oc4cccc(C(F)(F)F)c4)c(Cl)c3)c21 [TAK-285]
> 30 µM (inactive) | > 30 µM (inactive) | > 30 µM (inactive) | > 30 µM (inactive) | > 30 µM (inactive) | > 30 µM (inactive) | > 30 µM (inactive) | COc1cc2ncnc3c2cc1OCCCCCN(C)Cc1ccc(Br)cc1N3 [JNJ-26483327]
> 30 µM (inactive) | > 30 µM (inactive) | > 30 µM (inactive) | > 30 µM (inactive) | > 30 µM (inactive) | > 30 µM (inactive) | > 30 µM (inactive) | O=C(Nc1ccc(OC(F)(F)F)cc1)c1sccc1NCc1ccnc2ccccc12 [OSI-930]
> 30 µM (inactive) | > 30 µM (inactive) | > 30 µM (inactive) | > 30 µM (inactive) | > 30 µM (inactive) | > 30 µM (inactive) | > 30 µM (inactive) | COc1cc2ncnc(Nc3ccc(F)c(Cl)c3)c2cc1NC(=O)/C=C/CN1CCCCC1 [DACOMITINIB ANHYDROUS]
> 30 µM (inactive) | > 30 µM (inactive) | > 30 µM (inactive) | > 30 µM (inactive) | > 30 µM (inactive) | > 30 µM (inactive) | > 30 µM (inactive) | COc1ccc2c(OCc3nnc4ccc(-c5ccccc5)nn34)ccnc2c1 [AMG-208]

Compound | Kd [1] | Kd [2] | Kd [3] | Kd [4] | Kd [5] | Kd [6] | Kd (Ephrin type-B receptor 2)
C=CCN(/C=C1/C(=O)O[C@H](COC)[C@@]2(C)C1=C(O)C(=O)C1=C2[C@H](OC(C)=O)C[C@]2(C)C(=O)CC[C@@H]12)CC=C [SONOLISIB] | > 30 µM (inactive) | > 30 µM (inactive) | > 30 µM (inactive) | > 30 µM (inactive) | > 30 µM (inactive) | > 30 µM (inactive) | > 30 µM (inactive)
C=CC(=O)Nc1cc(Nc2nccc(-c3cn(C)c4ccccc34)n2)c(OC)cc1N(C)CCN(C)C [OSIMERTINIB] | > 30 µM (inactive) | > 30 µM (inactive) | 0.321 µM (active) | > 30 µM (inactive) | > 30 µM (inactive) | > 30 µM (inactive) | > 30 µM (inactive)
Cc1c(Cn2c(C)nc3c(C(=O)O)cc(N4CCOCC4)cc32)cccc1C(F)(F)F [GSK-2636771] | > 30 µM (inactive) | > 30 µM (inactive) | > 30 µM (inactive) | > 30 µM (inactive) | > 30 µM (inactive) | > 30 µM (inactive) | > 30 µM (inactive)
